Source: paper PMC2898572 (Journal of neurochemistry, 2009)
Where “and” joins values, the source holds several entries; their conditions need not be identical. Equal values may be shown once.

Tests used:
[1] = system: opioid peptide transport system; details: SK-N-SH cells; ref Thakker et al. 2008; cited from earlier work
[2] = system: wild-type and Pept2 null mice; assay: Hot-plate test; assay type: in vivo; details: for ED50: icv
[3] = system: PEPT2; details: rat choroid plexus; concentrations 1,000 times in excess; ref Teuscher et al. 2001; cited from earlier work
[4] = target: rat PEPT2; details: read-out: Ki (PEPT2 inhibitor); LLC-PK1 cells stably transfected with rat PEPT2; ref Terada et al. 2000; cited from earlier work

Compound | stimulation of opioid peptide transport system [1] | maximum analgesia ([2]; 100 nmol icv, both genotypes) [% MPE] | duration of response to 100 nmol dose ([2]; 100 nmol icv, both genotypes, 40 min experiment) | ED50 ([2]; Pept2 null mice, response at 5 min, estimate ± standard error) [nmol] | time of maximum analgesia ([2]; after icv injection, both genotypes) [min] | ED50 ([2]; both genotypes (wild-type and Pept2 null)) [nmol] | ED50 ([2]; wild-type mice, response at 5 min, estimate ± standard error) | difference in ED50 between genotypes ([2]; wild-type vs Pept2 null) | effect on the uptake of GlySar [3] | effect on the MPE of L-KTP ([2]; bestatin 160 nmol icv with 4 nmol L-KTP, Pept2 null mice, p=0.2931) | Ki [4] [µM]
L-Tyr-D-Arg [D-KTP] | little stimulation | 100 | fully analgesic throughout the 40 min experiment | 9.1 ± 0.8 | 5 | 9 to 10 | 10.3 nmol and 10.3 ± 1.0 nmol | ~ 10% | no effect |  | 
CC(C)C[C@H](NC(=O)[C@@H](O)[C@H](N)Cc1ccccc1)C(=O)O [bestatin] |  |  |  |  |  |  |  |  |  | little effect | 18
